US5830864A, “Antiherpes peptide derivatives having a ureido n-terminus” (priority 1995, dated 1998)
*1 amine or outer side, *2 acyl side, *3 side chain or, on linkers, in order; H or OH if unused. Where a SMILES comes first, the peptide text is derived from it. [ ]: non-standard residue; d: D form. The star is where a group is joined. Gly(1-adamantyl) = N[C@H](C(=O)O)C12CC3CC(CC(C3)C1)C2; Asp(3,3-(CH2)4) = N[C@H](C(=O)O)C1(C(=O)O)CCCC1; tBuAla = CC(C)(C)C[C@H](N)C(=O)O; Tle = CC(C)(C)[C@H](N)C(=O)O; NH(3-pentyl) = CCC(CC)N*; Pyrrolidide = C1CCN(*)C1; X2 = CC(C)(C)CC(C)(C)N*; CO = O=C([*:1])[*:2]; X1 = CCCC1(N*)CCCC1; X3 = CCCC(C)(C)N*; X4 = CCCC(CCC)N*

Molecular target: HSV-1 ribonucleotide reductase (Human herpesvirus 1, UniProt P08543)
Sequence (P08543 whole entry): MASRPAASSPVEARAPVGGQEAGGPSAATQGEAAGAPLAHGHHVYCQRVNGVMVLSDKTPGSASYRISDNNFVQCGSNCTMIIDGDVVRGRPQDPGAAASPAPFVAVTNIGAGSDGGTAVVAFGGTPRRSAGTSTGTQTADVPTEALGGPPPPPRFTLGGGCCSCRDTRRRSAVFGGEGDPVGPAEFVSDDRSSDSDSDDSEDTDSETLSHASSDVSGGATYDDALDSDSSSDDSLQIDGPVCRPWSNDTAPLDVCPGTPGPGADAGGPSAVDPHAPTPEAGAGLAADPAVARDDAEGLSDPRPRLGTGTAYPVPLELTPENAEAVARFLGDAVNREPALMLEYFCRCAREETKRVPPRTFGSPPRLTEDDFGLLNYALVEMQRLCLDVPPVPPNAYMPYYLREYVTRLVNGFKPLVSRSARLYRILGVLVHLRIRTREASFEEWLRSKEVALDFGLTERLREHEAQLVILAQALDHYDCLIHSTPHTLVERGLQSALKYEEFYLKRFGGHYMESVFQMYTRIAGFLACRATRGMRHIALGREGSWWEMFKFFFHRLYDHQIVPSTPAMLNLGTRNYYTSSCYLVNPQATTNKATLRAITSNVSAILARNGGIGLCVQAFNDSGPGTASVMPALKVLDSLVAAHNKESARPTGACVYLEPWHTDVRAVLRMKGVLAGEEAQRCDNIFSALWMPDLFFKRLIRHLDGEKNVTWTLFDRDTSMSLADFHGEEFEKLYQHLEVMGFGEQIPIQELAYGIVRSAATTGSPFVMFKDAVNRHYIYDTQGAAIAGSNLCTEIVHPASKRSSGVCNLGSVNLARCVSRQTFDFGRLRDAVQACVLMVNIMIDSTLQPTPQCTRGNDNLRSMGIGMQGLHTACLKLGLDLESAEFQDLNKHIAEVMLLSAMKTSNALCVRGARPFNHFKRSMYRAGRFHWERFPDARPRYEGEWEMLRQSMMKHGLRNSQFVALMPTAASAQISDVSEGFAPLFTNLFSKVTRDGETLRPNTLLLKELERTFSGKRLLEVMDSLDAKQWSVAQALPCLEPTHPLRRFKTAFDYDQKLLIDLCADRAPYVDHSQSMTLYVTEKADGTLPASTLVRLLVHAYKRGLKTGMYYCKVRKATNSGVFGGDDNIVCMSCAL
Experiment: biochemical
Excerpt: HSV-1 ribonucleotide reductase (partially purified) was obtained from quiescent BHK-21/C13 cells infected with strain F HSV-1 virus at 10 plaque forming units/cell as described by E. A. Cohen et al., J. Gen.
The number of units of the enzyme preparation used in each assay was constant, based on the specific activity of the enzyme preparation.

SMILES | IC50 [nM]
CCCC1(NC(=O)N[C@H](C(=O)N[C@@H](CC(=O)N2CCCC2)C(=O)N[C@H](C(=O)N[C@@H](CC(C)(C)C)C(=O)OCC)C2(C(=O)O)CCCC2)C(C)(C)C)CCCC1 [(1-propylcyclopentyl)-NHC(O)-Tbg-Asp(pyrrolidino)-Asp(cyPn)-γMeLeu-OEt] ({X1-CO}-[Tle]D(Pyrrolidide)[Asp(3,3-(CH2)4)][tBuAla]-OEt) | 200
CCCC1(NC(=O)N[C@H](C(=O)N[C@@H](CC(=O)N2CCCC2)C(=O)N[C@H](C(=O)N[C@@H](CC(C)(C)C)C(=O)O)C2(C(=O)O)CCCC2)C(C)(C)C)CCCC1 [(1-propylcyclopentyl)-NHC(O)-Tbg-Asp(pyrrolidino)-Asp(cyPn)-γMeLeu-OH] ({X1-CO}-[Tle]D(Pyrrolidide)[Asp(3,3-(CH2)4)][tBuAla]-OH) | 130
CC(C)(C)C[C@@H](CO)NC(=O)[C@@H](NC(=O)[C@H](CC(=O)N1CCCC1)NC(=O)[C@@H](NC(=O)NCc1ccccc1)C(C)(C)C)C1(C(=O)O)CCCC1 [BzlNHC(O)-Tbg-Asp(pyrrolidino)-Asp(cyPn)-γMeLeucinol] | 410
CCC(CC)NC(=O)N[C@H](C(=O)N[C@@H](CC(=O)N1CCCC1)C(=O)N[C@H](C(=O)N[C@@H](CC(C)(C)C)C(=O)O)C1(C(=O)O)CCCC1)C12CC3CC(CC(C3)C1)C2 [Et2 CHNHC(O)--NH-(S)-CH(adamantyl)-C(O)-Asp(pyrrolidino)-Asp(cyPn)-γMeLeu-OH] ({NH(3-pentyl)-CO}-[Gly(1-adamantyl)]D(Pyrrolidide)[Asp(3,3-(CH2)4)][tBuAla]-OH) | 82
CCC(CC)NC(=O)N[C@H](C(=O)N[C@@H](CC(=O)N1CCCC1)C(=O)N[C@H](C(=O)N[C@H](CO)CC(C)(C)C)C1(C(=O)O)CCCC1)C12CC3CC(CC(C3)C1)C2 [Et2 CHNHC(O)--NH-(S)-CH(adamantyl)-C(O)-Asp(pyrrolidino)-Asp(cyPn)-γMeLeucinol] | 160
CCC(CC)NC(=O)N[C@H](C(=O)N[C@@H](CC(=O)N1CCCC1)C(=O)N[C@H](C(=O)NCCC(C)(C)C)C1(C(=O)O)CCCC1)C(C)(C)C [Et2 CHNHC(O)-Tbg-Asp(pyrrolidino)-Asp(cyPn)-NHCH2 CH2 CMe3] | 200
CCC(CC)NC(=O)N[C@H](C(=O)N[C@@H](CC(=O)N1CCCC1)C(=O)N[C@H](C(=O)NCC(C)C)C1(C(=O)O)CCCC1)C(C)(C)C [Et2 CHNHC(O)-Tbg-Asp(pyrrolidino)-Asp(cyPn)-NHCH2 CHMe2] | 600
CCC(CC)NC(=O)N[C@H](C(=O)N[C@@H](CC(=O)N1CCCC1)C(=O)N[C@H](C(=O)NCC(C)(C)C)C1(C(=O)O)CCCC1)C(C)(C)C [Et2 CHNHC(O)-Tbg-Asp(pyrrolidino)-Asp(cyPn)-NHCH2 CMe3] | 130
CCC(CC)NC(=O)N[C@H](C(=O)N[C@@H](CC(=O)N1CCCC1)C(=O)N[C@H](C(=O)N[C@@H](CC(C)(C)C)C(=O)O)C1(C(=O)O)CCCC1)C(C)(C)C [Et2 CHNHC(O)-Tbg-Asp(pyrrolidino)-Asp(cyPn)-γMeLeu-OH] ({NH(3-pentyl)-CO}-[Tle]D(Pyrrolidide)[Asp(3,3-(CH2)4)][tBuAla]-OH) | 100
CCC(CC)NC(=O)N[C@H](C(=O)N[C@@H](CC(=O)N1CCCC1)C(=O)N[C@H](C(=O)N[C@H](CO)CC(C)(C)C)C1(C(=O)O)CCCC1)C(C)(C)C [Et2 CHNHC(O)-Tbg-Asp(pyrrolidino)-Asp(cyPn)-γMeLeucinol] | 98
CCC(CC)NC(=O)N[C@H](C(=O)N[C@@H](CC(=O)N1CCCC1)C(=O)N[C@H](C(=O)N[C@@H](CC(C)C)C(=O)O)[C@H](C(=O)O)C(C)C)C(C)(C)C [Et2 CHNHC(O)-Tbg-Asp(pyrrolidino)-Asp{(R)-iPr}-Leu-OH] | 570
CCC(CC)NC(=O)N[C@H](C(=O)N[C@@H](CC(=O)N1CCCC1)C(=O)N[C@H](C(=O)N[C@@H](CC(C)(C)C)C(=O)O)[C@H](C(=O)O)C(C)C)C(C)(C)C [Et2 CHNHC(O)-Tbg-Asp(pyrrolidino)-Asp{(R)-iPr}-γMeLeu-OH] | 72
CCC(CC)NC(=O)N[C@H](C(=O)N[C@@H](CC(=O)N1CCCC1)C(=O)N[C@H](C(=O)N[C@H](CO)CC(C)(C)C)[C@H](C(=O)O)C(C)C)C(C)(C)C [Et2 CHNHC(O)-Tbg-Asp(pyrrolidino)-Asp{(R)-iPr}-γMeLeucinol] | 100
CCCC(CC)(CCC)NC(=O)N[C@H](C(=O)N[C@@H](CC(=O)N1CCCC1)C(=O)N[C@H](C(=O)N[C@H](CC)C(C)(C)C)C1(C(=O)O)CCCC1)C(C)(C)C [EtPr2 CNHC(O)-Tbg-Asp(pyrrolidino)Asp(cyPn)-NH-(R)-CH(Et)CMe3] | 140
CC(C)NC(=O)N[C@H](C(=O)N[C@@H](CC(=O)N1CCCC1)C(=O)N[C@H](C(=O)N[C@H](CO)CC(C)(C)C)C1(C(=O)O)CCCC1)C(C)(C)C [Me2 CHNHC(O)-Tbg-Asp(pyrrolidino)-Asp(cyPn)-γMeLeucinol] | 70
CC(C)(C)C[C@H](NC(=O)[C@@H](NC(=O)[C@H](CC(=O)N1CCCC1)NC(=O)[C@@H](NC(=O)NC(C)(C)CC(C)(C)C)C(C)(C)C)C1(C(=O)O)CCCC1)C(=O)O [Me3 CCH2 CMe2 NHC(O)-Tbg-Asp(pyrrolidino)-Asp(cyPn)-γMeLeu-OH] ({X2-CO}-[Tle]D(Pyrrolidide)[Asp(3,3-(CH2)4)][tBuAla]-OH) | 180

SMILES | IC50 [nM]
CC(C)(C)C[C@@H](CO)NC(=O)[C@@H](NC(=O)[C@H](CC(=O)N1CCCC1)NC(=O)[C@@H](NC(=O)NC(C)(C)C)C(C)(C)C)C1(C(=O)O)CCCC1 [Me3 CNHC(O)-Tbg-Asp(pyrrolidino)-Asp(cyPn)-γMeLeucinol] | 100
CNC(=O)N[C@H](C(=O)N[C@@H](CC(=O)N1CCCC1)C(=O)N[C@H](C(=O)N[C@H](CO)CC(C)(C)C)C1(C(=O)O)CCCC1)C(C)(C)C [MeNHC(O)-Tbg-Asp(pyrrolidino)-Asp(cyPn)-γMeLeucinol] | 890
CCCC(C)(CCC)NC(=O)N[C@H](C(=O)N[C@@H](CC(=O)N1CCCC1)C(=O)N[C@H](C(=O)NCC(C)(C)C)C1(C(=O)O)CCCC1)C(C)(C)C [MePr2 CNHC(O)-Tbg-Asp(pyrrolidino)-Asp(cyPn)-NHCH2 CMe3] | 160
CC(C)(C)C[C@@H](CO)NC(=O)[C@@H](NC(=O)[C@H](CC(=O)N1CCCC1)NC(=O)[C@@H](NC(=O)Nc1ccccc1)C(C)(C)C)C1(C(=O)O)CCCC1 [PhNHC(O)-Tbg-Asp(pyrrolidino)-Asp(cyPn)-γMeLeucinol] | 710
CCCC(CCC)NC(=O)N[C@H](C(=O)N[C@@H](CC(=O)N1CCCC1)C(=O)N[C@H](C(=O)N[C@H](CO)CC(C)(C)C)C1(C(=O)O)CCCC1)C(C)(C)C(=O)O [Pr2 CHNHC(O)-Asp(diMe)-Asp(pyrrolidino)-Asp(cyPn)-γMeLeucinol] | 200
CCCC(CCC)NC(=O)N[C@H](C(=O)N[C@@H](CC(=O)N1CCCC1)C(=O)N[C@H](C(=O)NCC(C)(C)CC)C1(C(=O)O)CCCC1)C(C)(C)C [Pr2 CHNHC(O)-Tbg-Asp(pyrrolidino)-Asp(cyPn)-NHCH2 CMe2 Et] | 240
CCCC(CCC)NC(=O)N[C@H](C(=O)N[C@@H](CC(=O)N1CCCC1)C(=O)N[C@H](C(=O)NCC(C)(C)C)C1(C(=O)O)CCCC1)C(C)(C)C [Pr2 CHNHC(O)-Tbg-Asp(pyrrolidino)-Asp(cyPn)-NHCH2 CMe3] | 180
CCCC(CCC)NC(=O)N[C@H](C(=O)N[C@@H](CC(=O)N1CCCC1)C(=O)N[C@H](C(=O)N[C@H](C)C(C)(C)C)C1(C(=O)O)CCCC1)C(C)(C)C [Pr2 CHNHC(O)-Tbg-Asp(pyrrolidino)-Asp(cyPn)-NHCH(CH3)CMe3] | 180
CCCC(CCC)NC(=O)N[C@H](C(=O)N[C@@H](CC(=O)N1CCCC1)C(=O)N[C@H](C(=O)N[C@@H](CC(C)(C)C)C(=O)O)C1(C(=O)O)CCCC1)C(C)(C)C [Pr2 CHNHC(O)-Tbg-Asp(pyrrolidino)-Asp(cyPn)-γMeLeu-OH] ({X4-CO}-[Tle]D(Pyrrolidide)[Asp(3,3-(CH2)4)][tBuAla]-OH) | 96
CCCC(CCC)NC(=O)N[C@H](C(=O)N[C@@H](CC(=O)C1CCC1)C(=O)N[C@H](C(=O)NCC(C)(C)C)C1(C(=O)O)CCCC1)C(C)(C)C [Pr2 CHNHC(O)-Tbg-NH-(S)-CH(2-cyclobutyl-2-oxoethyl)C(O)-Asp(cyPn)-NHCH2 CMe3] | 250
CCCC(CCC)NC(=O)N[C@H](C(=O)N[C@@H](CC(=O)C1CCCC1)C(=O)N[C@H](C(=O)NCC(C)(C)C)C1(C(=O)O)CCCC1)C(C)(C)C [Pr2 CHNHC(O)-Tbg-NH-(S)-CH(2-cyclopentyl-2-oxoethyl)C(O)-Asp(cyPn)-NHCH2 CMe3] | 200
CCCC(CCC)NC(=O)N[C@H](C(=O)N[C@@H](CC(=O)C1CCCCC1)C(=O)N[C@H](C(=O)NCC(C)(C)C)C1(C(=O)O)CCCC1)C(C)(C)C [Pr2 CHNHC(O)-Tbg-NHCH(2-cyclohexyl-2-oxoethyl)C(O)-Asp(cyPn)-NHCH2 CMe3] | 140
CCCC(CCC)NC(=O)N[C@H](C(=O)N[C@@H](CC(=O)C(CC)CC)C(=O)N[C@H](C(=O)NCC(C)(C)C)C1(C(=O)O)CCCC1)C(C)(C)C [Pr2 CHNHC(O)-Tbg-NHCH(3-ethyl-2-oxopentyl)CO-Asp(cyPn)-NHCH2 CMe3] | 400
CCCC(C)(C)NC(=O)N[C@H](C(=O)N[C@@H](CC(=O)N1CCCC1)C(=O)N[C@H](C(=O)N[C@@H](CC(C)(C)C)C(=O)O)C1(C(=O)O)CCCC1)C(C)(C)C [PrMe2 CNHC(O)-Tbg-Asp(pyrrolidino)-Asp(cyPn)-γMeLeu-OH] ({X3-CO}-[Tle]D(Pyrrolidide)[Asp(3,3-(CH2)4)][tBuAla]-OH) | 100
CCCC(CCC)NC(=O)N[C@H](C(=O)N[C@@H](CC(=O)N1CCCC1)C(=O)N[C@H](C(=O)N[C@H](CO)CC(C)(C)C)C1(C(=O)O)CCCC1)C(C)(C)C [Title Compound of Example 8, Pr2 CHNHC(O)-Tbg-Asp(pyrrolidino)-Asp(cyPn)-γMeLeucinol] | 80
